Results: article PMC6278568, “Discovery of 3-Amino-2-Hydroxypropoxyisoflavone Derivatives as Potential Anti-HCV Agents” (Molecules, 2018)
“Also recorded” adds a separate entry of the source.

How the values were obtained:
[1] = Cytotoxicity in Ava-5 cells (XTT method); format: cell-based; settings: human, Ava5 cells (HCV subgenomic replicon cell line); Ava-5 cells, 72 h, XTT method; read-out: CC50 (concentration causing a 50% growth inhibition of uninfected ava-5 cells)
Method: (§1) Compounds were dissolved in DMSO at 10 mM and then diluted in culture medium.
(§2) Ava5 cells, an engineered HCV subgenomic replicon cell line, were cultured in Dulbecco′s modified Eagle′s medium (DMEM) with 10% heat-inactivated fetal bovine serum, 1% antibiotic–antimycotic, and 1% non-essential amino acids. Ava5 cells were maintained in DMEM with 1 mg mL^−1 G418 to maintain the stable expression of replicon.
(§3) For cytotoxicity tests, run in parallel with antiviral assays, plates at an initial density of (5 × 10^3 cells/well) were treated with or without serial dilutions of test compounds. Cell viability was determined after 72 h at 37 °C in a humidified CO2 (5%) atmosphere by the (2,3-bis[2-methyloxy-4-nitro-5-sulfophenyl]-2H-tetrazolium-5-carboxanilide) (XTT) method.

[2] = test system: ava-5 cells; test: Cytotoxicity in Ava-5 cells (XTT method); format: cell-based
Method: as §1, §2, §3

[3] = test system: HCV protein synthesis (NS5B); test: HCV protein synthesis in Ava-5 cells by western blotting; format: cell-based, Hepatitis C virus; settings: Ava-5 cells, 2.5, 5, 10 and 20 μM, 3 days
Method: (§4) To further confirm the anti-HCV effect of compound 6b, we treated compound 6b at indicated concentrations in Ava-5 cells for 3 days. […] Treatment of 0.1% dimethyl sulfoxide (DMSO) served as a mock control on inhibition of HCV replication (Figure 3 and Figure 4).
Ava5 cells were seeded in 24-well plates at a density of 5 × 10^4 cells per well overnight and treated with indicated reagent at proper concentrations for 3 days. Cells were washed with cold phosphate buffer saline (PBS) and lysed by radioimmunoprecipitation assay (RIPA) lysis buffer (50 mM Tris-HCl, pH 7.5, 150 mM NaCl, 1% Nonidet P-40, 2 mM EDTA, 1 mM EGTA, 1 mM NaVO3, 10 mM NaF, 1 mM DTT, 1 mM PMSF, 25 μg/mL aprotinin, and 25 μg/mL leupeptin) and stored at −20 °C. The protein concentration was determined by the Bradford method. Ten μg protein were separated by 10% SDS-PAGE and transferred onto a polyvinylidene difluorid (PVDF) membrane. The membrane was blocked with 5% non-fat dried milk and incubated with specific antibodies against NS5B (1:5000; Abcam Cambridge, MA, USA), glyceraldehyde-3-phosphate dehydrogenase (GAPDH) and anti-HO-1 (1:3000, Abcam Cambridge, MA, USA). Antibodies were diluted in 5% milk containing Tris-buffered saline (TBS) and 0.5% Tween. The blotting signal was developed using an ECL detection kit (PerkinElmer, Norwalk, CT, USA) and was counted by the software Quantity One (Bio-Rad, Foster, CA, USA). […]

[4] = test system: HCV RNA; test: HCV RNA expression in Ava-5 cells by RT-qPCR; format: cell-based, Hepatitis C virus; settings: Ava-5 cells, 2.5, 5, 10 and 20 μM, 3 days, normalized by GAPDH mRNA
Method: as §4
Figure 3 Inhibition of HCV RNA expression in HCV-infected Ava-5 cells by 6b. Ava-5 cells were treated with 2.5, 5, 10 and 20 μM of 6b for 3 days. Total RNA was extracted and quantified HCV RNA levels by RT-qPCR. HCV RNA expression was normalized by cellular GAPDH mRNA. Treatment with 0.1% DMSO served as a mock control. The results are expressed as the means ± standard deviations (SD) of triplicate experiments.

[5] = test system: HO-1 protein expression; test: HO-1 protein expression in Ava-5 cells by western blotting; format: cell-based; settings: 10 μM, 3 days, compared with DMSO-treated cells
Method: To determine whether compounds 6b, 6e, 6h and 6i have impact on HO-1 protein expression in Ava-5 cells, we treated these compounds at 10 μM in Ava5 cells.
Ava5 cells were seeded in 24-well plates at a density of 5 × 10^4 cells per well overnight and treated with indicated reagent at proper concentrations for 3 days. Cells were washed with cold phosphate buffer saline (PBS) and lysed by radioimmunoprecipitation assay (RIPA) lysis buffer (50 mM Tris-HCl, pH 7.5, 150 mM NaCl, 1% Nonidet P-40, 2 mM EDTA, 1 mM EGTA, 1 mM NaVO3, 10 mM NaF, 1 mM DTT, 1 mM PMSF, 25 μg/mL aprotinin, and 25 μg/mL leupeptin) and stored at −20 °C. The protein concentration was determined by the Bradford method. Ten μg protein were separated by 10% SDS-PAGE and transferred onto a polyvinylidene difluorid (PVDF) membrane. The membrane was blocked with 5% non-fat dried milk and incubated with specific antibodies against NS5B (1:5000; Abcam Cambridge, MA, USA), glyceraldehyde-3-phosphate dehydrogenase (GAPDH) and anti-HO-1 (1:3000, Abcam Cambridge, MA, USA). Antibodies were diluted in 5% milk containing Tris-buffered saline (TBS) and 0.5% Tween. The blotting signal was developed using an ECL detection kit (PerkinElmer, Norwalk, CT, USA) and was counted by the software Quantity One (Bio-Rad, Foster, CA, USA).
Compound 6b, 6e, 6h and 6i induced HO-1 protein expression. Ava-5 cells were treated with compounds at 10 μM for 3 days. The cell lysate was subjected to western blotting with anti-HO-1 and anti-GAPDH antibodies.

[6] = test system: HCV replication; test: Anti-HCV activity in Ava-5 HCV subgenomic replicon cells (firefly luciferase assay); format: cell-based, Hepatitis C virus; settings: Ava-5 cells
Method: Ava-5 cells were treated with compounds 6a–i or the positive ribavirin for three days, and then analyzed through firefly luciferase assay. The concentration that inhibited 50% HCV replication (EC50), the concentration that inhibited 50% cell growth (CC50), and the selectivity index (SI: CC50/EC50) of compounds were determined with ribavirin as a positive control.
as §1, §2

[7] = test system: Nrf2 / ARE transactivation; test: ARE transactivation, p3xARE-Luc reporter in Ava-5 cells (luciferase assay); format: cell-based; settings: p3xARE-Luc-transfected Ava-5 cells, 1 and 10 μM, 3 days
Text: Heme oxygenase 1 expression is regulated by the transcription factors Nrf2, Keap1, and Bach1 through the binding of ARE in its promoter region; therefore, we determined whether isoflavones-mediated HO-1 induction was dependent on ARE transactivation by treating p3xARE-Luc-transfected ava-5 cells with increasing concentrations of […] for 3 days.
Ava5 cells were transfected with the HO-1 promoter-driven luciferase plasmid, pHO-1-Luc, using the T-pro^TM transfection reagent (Ji-Feng Biotechnology Co., Ltd., Taipei, Taiwan) according to the manufacturer′s instructions. The transfected cells were treated with compounds at various concentrations for 3 days. Each transfection complex contains 0.1 μg pSEAP, a secreted alkaline phosphatase (SEAP) expression vector, for normalization luciferase activity serving as a transfection control. The luciferase activity assay was performed using the Bright-Glo Luciferase assay system (Promega) (Madison, WI, USA) according to the manufacturer′s instructions.
Figure 6 Isoflavones inhibited HCV replication by upregulating Nrf2 expression. Compound 6b, 6e, 6h and 6i stimulated ARE transactivation in Ava-5 cells. The antioxidant response reporter plasmid, p3xARE-Luc, was transfected into Ava-5 cells and then treated with isoflavones (1 and 10 μM) for 3 days. The relative induction of antioxidant activity was determined by luciferase assay. The activity of untreated Ava-5 cells was considered to be 1.

COc1ccc(CCNCC(O)COc2ccc3c(=O)c(-c4ccc(OC)c(OC)c4)coc3c2)cc1OC (stereo not drawn) [Compound 6b, 7-{3-[(3,4-Dimethoxyphenethyl)amino]-2-hydroxypropoxy}-3-(3,4-dimethoxyphenyl)-4H-chromen-4-one]
CC50 at 72 h [1]: 138 ± 6.91 µM | cell cytotoxicity at the antiviral test concentrations ([2]; Ava5 cells, 2.5-20 μM, 3 days): without cell cytotoxicity | cytotoxicity compared with ribavirin (in words) ([2]; Ava-5 cells): less cytotoxic than ribavirin | HCV protein synthesis [3]: dose-dependently reduced | HCV RNA replication / expression [4]: dose-dependently reduced; also recorded: inhibit the HCV RNA expression in Ava5 cells in a dose-dependent manner | HO-1 protein level [5]: could induce HO-1 protein level | anti-HCV activity compared with ribavirin (in words) ([6]; three days): more active than ribavirin | SI (selectivity index, CC50/EC50) ([6]; CC50/EC50): 21.08 | EC50 ([6]; Hepatitis C virus, Ava5, 72 h, treated for three days, firefly luciferase assay, read-out: EC50 (concentration resulting in a 50% inhibition in virus production / HCV replication)): 6.53 ± 0.57 µM | anti-HCV activity relative to ribavirin ([6]; ratio of EC50 values): approximately 2 fold | melting point: 134 to 135 °C | ARE-mediated luciferase activity [7]: increased ARE-mediated luciferase activity
